The values below come from ChEMBL document CHEMBL4270624, “Synthesis and antibacterial evaluation of 13-substituted cycloberberine derivatives as a novel class of anti-MRSA agents” (Eur J Med Chem, 2018).

Bounds are passed on as bounds.

In series [1] the test system is Staphylococcus aureus. The experiment in a line: Antibacterial activity against methicillin-resistant Staphylococcus aureus 13-18 clinical isolate after 18 hrs by agar dilution method. The note with it: 13-18, 18 h. It counts as functional. A general note: In agar dilution the substance is mixed into plates at graded concentrations.
Series [2] relates to Staphylococcus aureus. Put plainly: Antibacterial activity against methicillin-resistant Staphylococcus aureus 16-30 clinical isolate after 18 hrs by agar dilution method. The class given is functional. Particulars: 16-30, 18 h.
In series [3] the test system is Staphylococcus aureus. The experiment in a line: Antibacterial activity against methicillin-resistant Staphylococcus aureus ATCC BAA-1708 after 18 hrs by agar dilution method. The class given is functional. The note with it: ATCC BAA-1708, 18 h.
The subject of series [4] is Staphylococcus aureus. Put plainly: Antibacterial activity against methicillin-resistant Staphylococcus aureus 16-34 clinical isolate after 18 hrs by agar dilution method. The class given is functional. The note with it: 16-34, 18 h.
The subject of series [5] is Staphylococcus aureus. Put plainly: Antibacterial activity against methicillin-resistant Staphylococcus aureus ATCC BAA-976 after 18 hrs by agar dilution method. It counts as functional. Particulars: ATCC BAA-976, 18 h.
Series [6] deals with Staphylococcus aureus. Put plainly: Antibacterial activity against methicillin-resistant Staphylococcus aureus ATCC 33591 after 18 hrs by agar dilution method. The class given is functional. The note with it: ATCC 33591, 18 h.
In series [7] the test system is Staphylococcus aureus. The experiment in a line: Antibacterial activity against methicillin-resistant Staphylococcus aureus 13-23 clinical isolate after 18 hrs by agar dilution method. The class given is functional. The note with it: 13-23, 18 h.
In series [8] the test system is Staphylococcus aureus. The experiment in a line: Antibacterial activity against methicillin-resistant Staphylococcus aureus ATCC 43300 after 18 hrs by agar dilution method. It counts as functional. Particulars: ATCC 43300, 18 h.
Series [9] has as its system Staphylococcus aureus. Put plainly: Antibacterial activity against methicillin-sensitive Staphylococcus aureus ATCC 29213 after 18 hrs by agar dilution method. It counts as functional. The note with it: ATCC 29213, 18 h.
Series [10] concerns Staphylococcus aureus. The experiment in a line: Antibacterial activity against methicillin-sensitive Staphylococcus aureus 16-1 clinical isolate after 18 hrs by agar dilution method. It counts as functional. Particulars: 16-1, 18 h.
Series [11] is described as follows: Mean residence time (0 to t) in Sprague-Dawley rat at 5 mg/kg, po administered as single dose. It counts as ADME, organism-based. The note with it: in vivo.
A short description of series [12]: AUC (0 to t) in Sprague-Dawley rat at 5 mg/kg, po administered as single dose. It counts as ADME, organism-based. Particulars: in vivo.
The nature of series [13]: Toxicity in iv dosed Kunming mouse administered as single dose measured for 7 days. The class given is organism-based. Particulars: in vivo.
The nature of series [14]: Stability of the compound in Sprague-Dawley rat whole blood assessed as parent compound remaining after 1 hr by LC-MS/MS analysis. The class given is ADME, tissue-based. Particulars: read-out: Stability.
The nature of series [15]: Oral bioavailability in Sprague-Dawley rat at 5 mg/kg administered as single dose. The class given is ADME, organism-based. Particulars: in vivo.
Series [16] is described as follows: Half life in Sprague-Dawley rat at 1 mg/kg, iv administered as single dose. It counts as ADME, organism-based. Particulars: in vivo.
Series [17] in a line: Half life in Sprague-Dawley rat at 5 mg/kg, po administered as single dose. The class given is ADME, organism-based. The note with it: in vivo.
Series [18] can be described thus: AUC (0 to t) in Sprague-Dawley rat at 1 mg/kg, iv administered as single dose. The class given is ADME, organism-based. The note with it: in vivo.
A short description of series [19]: Mean residence time (0 to t) in Sprague-Dawley rat at 1 mg/kg, iv administered as single dose. It counts as ADME, organism-based. Particulars: in vivo.
Series [20] in a line: Cmax in Sprague-Dawley rat at 5 mg/kg, po administered as single dose. It counts as ADME, organism-based. On the set-up: dose 5 mg/kg, route oral. The note with it: in vivo.
Series [21] in a line: Tmax in Sprague-Dawley rat at 5 mg/kg, po administered as single dose. The class given is ADME, organism-based. Particulars: in vivo.
Series [22] can be described thus: Stability of the compound in Sprague-Dawley rat whole blood assessed as parent compound remaining after 24 hrs by LC-MS/MS analysis. It counts as ADME, tissue-based. Particulars: read-out: Stability.
The nature of series [23]: Stability of the compound in Sprague-Dawley rat whole blood assessed as parent compound remaining after 0.5 hrs by LC-MS/MS analysis. The note with it: read-out: Stability. It counts as ADME, tissue-based.

The MIC is the lowest concentration found to suppress growth. Usually MRT last stands for a mean duration of stay, worked out from the concentration-time curve. By AUC(0-t) is commonly meant exposure summed from dosing to a finite time, without extrapolation to infinity. Lower therefore signals low exposure. The LD50 is the dose at which mortality reaches 50%. The low end stands for a more toxic substance, the high end for a less toxic substance. In general, bioavailability refers to the share of a dose that reaches the circulation, judged against a reference dose that is usually intravenous. Read a high bioavailability as much systemic uptake. Usually half-life stands for the time needed for the level to fall by half in the phase considered. Higher therefore signals slow decline. As usually defined, the Cmax is the maximum level reached in the sampled fluid or tissue. In general, Tmax refers to the time at which the peak concentration occurs.

On to `COc1ccc2c(c[n+]3c4c2cc(Cc2ccccc2)c2c5c(cc(c24)CC3)OCO5)c1OC.[Br-]`, for which the MIC in series [1] came to 8 µg/mL; in series [2], 4 µg/mL; in series [3], 8 µg/mL; in series [4], 4 µg/mL; in [5] it was 4 µg/mL; in series [6], 4 µg/mL. The MIC in series [7], in series [8], in series [9] and in series [10] was 4 µg/mL in each case.
For the molecule `COc1ccc2c(c[n+]3c4c2cc(Cc2ccc(C)cc2)c2c5c(cc(c24)CC3)OCO5)c1OC.[Br-]`, the MIC in [1] amounted to 4 µg/mL; in [2], 2 µg/mL; in series [3] it was 8 µg/mL; in series [4] it was 2 µg/mL; in [5], 2 µg/mL; in [6], 2 µg/mL. For the same molecule, the MIC was determined as 4 µg/mL in series [7], 4 µg/mL in series [8], 2 µg/mL in [9] and 2 µg/mL in series [10].
In the case of `COc1ccc2c(c[n+]3c4c2cc(Cc2ccccc2C)c2c5c(cc(c24)CC3)OCO5)c1OC.[Br-]`, the MIC came out at 2 µg/mL in series [1]; 4 µg/mL in series [2]; 2 µg/mL in [3]; 2 µg/mL in series [4]; 1 µg/mL in series [5]; 2 µg/mL in series [6]. For the same molecule, the MIC in series [7] was 2 µg/mL; in [8] it was 2 µg/mL; in [9] it was 4 µg/mL; in series [10], 2 µg/mL. Besides, the MRT last in [11] is 2.1 h; in [19], 4.3 h. Moreover, the AUC(0-t) in series [12] is 28.3 ng·h/mL; in series [18], 724 ng·h/mL. The LD50 at 168 h in series [13] came out at 65.6 mg/kg. Also, the remaining at 1 h in series [14] was 94.2%. In addition, the bioavailability in series [15] is 0.8%. The half-life in series [16] was 7.2 h; in [17] it was 1.5 h. Besides, the Cmax in series [20] was 11.7 ng/mL. Moreover, in [21], the Tmax was 1 h. In series [22], the remaining at 24 h stood at 80.9%.
For `COc1ccc2c(c[n+]3c4c2ccc2c5c(cc(c24)CC3)OCO5)c1OC.[Br-]`, the MIC in [1], in series [2], in series [3], in series [4], in [5] and in series [6] was above 64 µg/mL in each case. Also, the MIC in series [7], in series [8], in [9] and in series [10] was above 64 µg/mL in each case.
`COc1ccc2c(c[n+]3c4c2cc(Cc2cccc(C)c2)c2c5c(cc(c24)CC3)OCO5)c1OC.[Br-]`: the MIC was 4 µg/mL in series [1]; 2 µg/mL in series [2]; 4 µg/mL in series [3]; 2 µg/mL in [4]; 2 µg/mL in series [5]; 4 µg/mL in [6]. The MIC worked out at 4 µg/mL in series [7], 4 µg/mL in [8], 2 µg/mL in series [9] and 2 µg/mL in series [10].
Take `COc1ccc2c(c[n+]3c4c2cc(C(C)c2ccccc2)c2c5c(cc(c24)CC3)OCO5)c1OC.[Br-]` (configuration not stated): the MIC is 2 µg/mL in [1]; 2 µg/mL in [2]; 4 µg/mL in [3]; 2 µg/mL in series [4]; 1 µg/mL in series [5]; 2 µg/mL in series [6]. Besides, the MIC came to 2 µg/mL in series [7], 4 µg/mL in [8], 2 µg/mL in [9] and 2 µg/mL in series [10]. For the same molecule, the LD50 at 168 h in series [13] was 41.2 mg/kg. Further, the remaining at 1 h in [14] stood at 91.2%. Further, the remaining at 24 h in series [22] came out at 77.3%.
For the molecule `COc1ccc2c(Cc3ccccc3)c3[n+](cc2c1OC)CCc1cc2c(cc1-3)OCO2.[Br-]`, the MIC in series [1] worked out at 32 µg/mL; in series [2], 64 µg/mL; in series [3], 32 µg/mL; in [4] it was 64 µg/mL; in series [5], 32 µg/mL; in series [6] it was 64 µg/mL. For the same molecule, the MIC in [7] is 32 µg/mL; in series [8], 64 µg/mL; in series [9], 32 µg/mL; in [10], 16 µg/mL.
For the molecule `CCOC(=O)[C@H](CCc1ccccc1)N[C@@H](C)C(=O)N1CCC[C@H]1C(=O)O` [ENALAPRIL], in series [14], the remaining at 1 h is 10.9%. Besides, the remaining at 0.5 h in series [23] came out at 42.9%.
With `C[C@H]1COc2c(N3CCN(C)CC3)c(F)cc3c(=O)c(C(=O)O)cn1c23.C[C@H]1COc2c(N3CCN(C)CC3)c(F)cc3c(=O)c(C(=O)O)cn1c23.O` [LEVOFLOXACIN], the minimum inhibitory concentration (MIC) in series [1] worked out at 32 µg/mL; in [2] it was 32 µg/mL; in [3], 8 µg/mL; in [4] it was 32 µg/mL; in [5], 0.125 µg/mL; in series [6], 0.125 µg/mL. In addition, the minimal inhibitory concentration (MIC) in series [7] was determined as 32 µg/mL; in [8], 0.125 µg/mL; in series [9] it was 0.125 µg/mL; in series [10] it was 0.125 µg/mL.
